Experimental data as given in patent US20250326785A1, “SODIUM SALT AND ETHANOLAMINE SALT OF 23-HYDROXYTORMENTIC ACID” (HUYABIO International, LLC, priority 2024, published 2025).
Like-named read-outs stand apart in the source and are kept apart here.

What was measured:
[1] = Stability study at 25° C./60% RH, 40° C./75% RH and 60° C. (XRPD, HPLC purity, impurity tracking); conditions: for XRPD: number = sodium salt XRPD Pattern; for RRT 0.801 / RRT 0.970 / RRT 1.000 (HBI-3808) / RRT 1.025 (Isomer of HBI-3808) / Total Impurities / RRT 1.935 / RRT 1.767: impurity tracking
From the text: Stability of HBI-3808 Sodium Salt Pattern 2 was studied over 13 weeks.
Table 2F presents impurity tracking results from a 13-week stability study of HBI-3808 sodium salt of Pattern 2. […]

[2] = Varying humidity (VH)-XRPD; assay type: physicochemical; conditions: 30° C.
Experimental: During the sorption phase, sodium salt Pattern 2 was observed between 40-60% RH. […] A mixture of sodium salt Pattern 2 and 5 was also observed at 80% RH. […] During the second desorption, from 90% RH to 40% RH, sodium salt Pattern 5 was maintained.
VH-XRPD analysis was carried out between 40-0% RH (FIG. 5L).

[3] = Dynamic vapor sorption (DVS) analysis; assay type: physicochemical
Experimental: GC analysis indicated residual solvent contents of 2847 ppm methanol; and 27 ppm TBME. […] No residual methanol or TBME was detected due to signal over-lap. […] TG-DSC analysis indicated two weight losses. The first weight loss of 2.3 wt. % was observed between 20-170° C. […] In the DSC thermogram, three endothermic events were observed (FIG. 17I). […] FT-IR (FIG. 17J) and Raman spectra (FIG. 17K) were recorded for reference. […] XRPD pattern of the ethanolamine salt was retained post-DVS (FIG. 17N). […] However, at the end of the experiment the solids on the microscope slide had discolored (FIG. 17O).

[4] = Salt disproportionation study (slurry in water, XRPD of solids, pH of mother liquor); assay type: physicochemical; conditions: for XRPD of recovered solids: ca. 24 h at 25° C.
Experimental: The pH of the filtered mother liquor was 9.77.
Salt disproportionation studies of ethanolamine salt. […] The pH of the filtered mother liquor was 8.65.
Method: 40 mg of sodium salt of HBI-3808 having a XRPD of Pattern 2, was weighed into a 2 mL push cap vial and a stirrer bar added. 0.2 mL of water was added to the vial and the experiment was stirred for ca. 24 h at 25° C. After 24 h the slurry was filtered by centrifuge filtration and the recovered solids were analyzed by XRPD. The pH of the filtered mother liquor was measured.

[5] = for HPLC Conc./: based on free acid
From the text: pH-dependent solubility of the HBI- 3808 sodium salt of Pattern 2 was studied.
pH dependent solubility of the HBI- 3808 sodium salt of Pattern 5 was studied.

[6] = Hydration study in methanol/water aw 0.1, 0.5 and 0.9; assay type: physicochemical
From the text: Hydration studies of ethanolamine salt.

[7] = 40° C./75% RH (open vial), 2 Weeks
[8] = 40° C./75% RH (open vial), 4 Weeks
[9] = 40° C./75% RH (open vial), 8 Weeks
[10] = 40° C./75% RH (open vial), 13 Weeks

Structure (SMILES): CC1CCC2(C(=O)[O-])CCC3(C)C(=CCC4C5(C)CC(O)C(O)C(C)(CO)C5CCC43C)C2C1(C)O.[Na+] (centres unmarked) [HBI-3808 sodium salt of Pattern 2, sodium salt of 23-hydroxytormentic acid]
- HPLC/ % area ([1]; 25° C./60% RH (open vial), 1 Week): 97.3 % area
- HPLC/ % area ([1]; 25° C./60% RH (open vial), 2 Weeks): 97.2 % area
- HPLC/ % area ([1]; 25° C./60% RH (open vial), 4 Weeks): 97.3 % area
- HPLC/ % area ([1]; 25° C./60% RH (open vial), 8 Weeks): 96.7 % area
- HPLC/ % area ([1]; 25° C./60% RH (open vial), 13 Weeks): 97.1 % area
- HPLC/ % area ([1]; 40° C./75% RH (open vial), 1 Week): 97.1 % area
- HPLC/ % area [1, 7]: 97.0 % area
- XRPD [1, 7]: 5
- HPLC/ % area [1, 8]: 97.3 % area
- XRPD [1, 8]: 5
- HPLC/ % area [1, 9]: 96.3 % area
- XRPD [1, 9]: 5
- HPLC/ % area [1, 10]: 97.0 % area
- XRPD [1, 10]: 5
- HPLC/ % area ([1]; 60° C. (closed vial), 1 Week): 97.2 % area
- XRPD ([1]; 60° C. (closed vial), 1 Week): 2
- HPLC/ % area ([1]; 60° C. (closed vial), 2 Weeks): 97.3 % area
- XRPD ([1]; 60° C. (closed vial), 2 Weeks): 2
- HPLC/ % area ([1]; 60° C. (closed vial), 4 Weeks): 97.3 % area
- XRPD ([1]; 60° C. (closed vial), 4 Weeks): 2
- HPLC/ % area ([1]; 60° C. (closed vial), 8 Weeks): 96.4 % area
- XRPD ([1]; 60° C. (closed vial), 8 Weeks): 2
- HPLC/ % area ([1]; 60° C. (closed vial), 13 Weeks): 97.3 % area
- change in chemical purity by HPLC over the stability study ([1]; all conditions (25° C./60% RH; 40° C./75% RH; 60° C.), 13 weeks (Pattern 5: 4 weeks)): no significant decrease in chemical purity
- RRT 0.801 ([1]; 25° C./60% RH, 1 week): 0.10 % area
- RRT 0.970 ([1]; 25° C./60% RH, 1 week): 0.10 % area
- RRT 1.000 (HBI-3808) ([1]; 25° C./60% RH, 1 week): 97.31 % area
- RRT 1.025 (Isomer of HBI-3808) ([1]; 25° C./60% RH, 1 week): 2.48 % area
- Total Impurities ([1]; 25° C./60% RH, 1 week): 2.69 % area
- RRT 0.970 ([1]; 25° C./60% RH, 2 weeks): 0.12 % area
- RRT 1.000 (HBI-3808) ([1]; 25° C./60% RH, 2 weeks): 97.29 % area
- RRT 1.025 (Isomer of HBI-3808) ([1]; 25° C./60% RH, 2 weeks): 2.39 % area
- RRT 1.935 ([1]; 25° C./60% RH, 2 weeks): 0.20 % area
- Total Impurities ([1]; 25° C./60% RH, 2 weeks): 2.71 % area
- RRT 0.970 ([1]; 25° C./60% RH, 4 weeks): 0.11 % area
- RRT 1.000 (HBI-3808) ([1]; 25° C./60% RH, 4 weeks): 97.47 % area
- RRT 1.025 (Isomer of HBI-3808) ([1]; 25° C./60% RH, 4 weeks): 2.41 % area
- Total Impurities ([1]; 25° C./60% RH, 4 weeks): 2.53 % area
- RRT 0.970 ([1]; 25° C./60% RH, 8 weeks): 0.10 % area
- RRT 1.000 (HBI-3808) ([1]; 25° C./60% RH, 8 weeks): 96.99 % area
- RRT 1.025 (Isomer of HBI-3808) ([1]; 25° C./60% RH, 8 weeks): 2.51 % area
- RRT 1.767 ([1]; 25° C./60% RH, 8 weeks): 0.29 % area
- Total Impurities ([1]; 25° C./60% RH, 8 weeks): 3.01 % area
- RRT 0.801 ([1]; 25° C./60% RH, 13 weeks): 0.12 % area
- RRT 1.000 (HBI-3808) ([1]; 25° C./60% RH, 13 weeks): 97.33 % area
- RRT 1.025 (Isomer of HBI-3808) ([1]; 25° C./60% RH, 13 weeks): 2.37 % area
- RRT 1.935 ([1]; 25° C./60% RH, 13 weeks): 0.19 % area
- Total Impurities ([1]; 25° C./60% RH, 13 weeks): 2.67 % area
- RRT 0.801 ([1]; 40° C./75% RH, 1 week): 0.10 % area
- RRT 0.970 ([1]; 40° C./75% RH, 1 week): 0.14 % area
- RRT 1.000 (HBI-3808) ([1]; 40° C./75% RH, 1 week): 97.28 % area
- RRT 1.025 (Isomer of HBI-3808) ([1]; 40° C./75% RH, 1 week): 2.48 % area
- Total Impurities ([1]; 40° C./75% RH, 1 week): 2.72 % area
- RRT 0.970 ([1]; 40° C./75% RH, 2 weeks): 0.12 % area
- RRT 1.000 (HBI-3808) ([1]; 40° C./75% RH, 2 weeks): 97.26 % area
- RRT 1.025 (Isomer of HBI-3808) ([1]; 40° C./75% RH, 2 weeks): 2.40 % area
- RRT 1.935 ([1]; 40° C./75% RH, 2 weeks): 0.22 % area
- Total Impurities ([1]; 40° C./75% RH, 2 weeks): 2.74 % area
- RRT 0.970 ([1]; 40° C./75% RH, 4 weeks): 0.11 % area
- RRT 1.000 (HBI-3808) ([1]; 40° C./75% RH, 4 weeks): 97.5 % area
- RRT 1.025 (Isomer of HBI-3808) ([1]; 40° C./75% RH, 4 weeks): 2.41 % area
- Total Impurities ([1]; 40° C./75% RH, 4 weeks): 2.52 % area
- RRT 0.970 ([1]; 40° C./75% RH, 8 weeks): 0.21 % area
- RRT 1.000 (HBI-3808) ([1]; 40° C./75% RH, 8 weeks): 96.88 % area
- RRT 1.025 (Isomer of HBI-3808) ([1]; 40° C./75% RH, 8 weeks): 2.51 % area
- RRT 1.767 ([1]; 40° C./75% RH, 8 weeks): 0.40 % area
- Total Impurities ([1]; 40° C./75% RH, 8 weeks): 3.12 % area
- RRT 1.000 (HBI-3808) ([1]; 40° C./75% RH, 13 weeks): 97.41 % area
- RRT 1.025 (Isomer of HBI-3808) ([1]; 40° C./75% RH, 13 weeks): 2.40 % area
- RRT 1.935 ([1]; 40° C./75% RH, 13 weeks): 0.20 % area
- Total Impurities ([1]; 40° C./75% RH, 13 weeks): 2.59 % area
- RRT 0.801 ([1]; 60° C., 1 week): 0.12 % area
- RRT 1.000 (HBI-3808) ([1]; 60° C., 1 week): 97.46 % area
- RRT 1.025 (Isomer of HBI-3808) ([1]; 60° C., 1 week): 2.43 % area
- Total Impurities ([1]; 60° C., 1 week): 2.54 % area
- RRT 0.970 ([1]; 60° C., 2 weeks): 0.12 % area
- RRT 1.000 (HBI-3808) ([1]; 60° C., 2 weeks): 97.27 % area
- RRT 1.025 (Isomer of HBI-3808) ([1]; 60° C., 2 weeks): 2.41 % area
- RRT 1.935 ([1]; 60° C., 2 weeks): 0.20 % area
- Total Impurities ([1]; 60° C., 2 weeks): 2.73 % area
- RRT 0.970 ([1]; 60° C., 4 weeks): 0.11 % area
- RRT 1.000 (HBI-3808) ([1]; 60° C., 4 weeks): 97.49 % area
- RRT 1.025 (Isomer of HBI-3808) ([1]; 60° C., 4 weeks): 2.40 % area
- Total Impurities ([1]; 60° C., 4 weeks): 2.51 % area
- RRT 0.970 ([1]; 60° C., 8 weeks): 0.12 % area
- RRT 1.000 (HBI-3808) ([1]; 60° C., 8 weeks): 97.04 % area
- RRT 1.025 (Isomer of HBI-3808) ([1]; 60° C., 8 weeks): 2.49 % area
- RRT 1.767 ([1]; 60° C., 8 weeks): 0.35 % area
- Total Impurities ([1]; 60° C., 8 weeks): 2.96 % area
- RRT 1.000 (HBI-3808) ([1]; 60° C., 13 weeks): 97.41 % area
- RRT 1.025 (Isomer of HBI-3808) ([1]; 60° C., 13 weeks): 2.41 % area
- RRT 1.935 ([1]; 60° C., 13 weeks): 0.18 % area
- Total Impurities ([1]; 60° C., 13 weeks): 2.59 % area
- RRT 1.000 (HBI-3808) ([1]; T = 0): 97.82 % area
- RRT 1.025 (Isomer of HBI-3808) ([1]; T = 0): 2.18 % area
- Total Impurities ([1]; T = 0): 2.18 % area
- input purity by HPLC ([1]; input material of the stability study (baseline)): 97.2 % area
- XRPD pattern during desorption ([2]; 40-0% RH): no change in XRPD Pattern
- XRPD pattern during sorption ([2]; at 70% RH): composite XRPD diffractogram of sodium salt Pattern 2 and 5
- XRPD pattern during sorption ([2]; at 90% RH): only sodium salt Pattern 5 was observed
- XRPD of recovered material post-DVS [3]: consistent with sodium salt of Pattern 5
- reversibility of mass uptake/loss ([3]; Pattern 2: second DVS cycle): reversible
- water (mass) uptake ([3]; at 80% RH/25° C. (Pattern 2: second DVS cycle)): 0.8 wt. %
- irreversible mass loss ([3]; first sorption cycle between 60-80% RH): about 2.4 wt. %
- pH of the filtered mother liquor [4]: 9.77
- XRPD of recovered solids [4]: consistent with HBI-3808 sodium salt of Pattern 5
- XRPD of recovered solids ([4]; listed as sodium salt of HBI-3808 having a XRPD of Pattern 2): consistent with sodium salt of HBI-3808 having a XRPD of pattern 5
- final Measured pH ([5]; FaSSGF): 9.35
- HPLC Conc./ ([5]; FaSSGF): >221.2 mg/mL
- concentration ([5]; pH 1.2): < 100 µg/mL
- HPLC Conc./ ([5]; target pH 1.2 chloride buffer, start 200 mg/mL (ethanolamine salt 100 mg/mL)): <0.005 mg/mL
- HPLC Conc./ ([5]; target pH 3.0 acetate buffer): 0.006 mg/mL
- HPLC Conc./ ([5]; target pH 4.0 acetate buffer): <0.005 mg/mL
- HPLC Conc./ ([5]; target pH 6.8 phosphate buffer): 0.4 mg/mL
- HPLC Conc./ ([5]; target pH 8.0 phosphate buffer): 15.3 mg/mL
- XRPD of solids recovered at the end of the experiment [6]: consistent with sodium salt Pattern 2
